Legend:
CDK7 = molecular target: T1, CDK7 (Homo sapiens, UniProt P50613); assay: CDK7 enzyme inhibition test; format: biochemical; conditions: [γ-33P]ATP, MBP substrate, 60 min preincubation at 25°C; Ki=IC50/(1+S/Km); read-out: Ki value of CDK7 inhibitory activity
T1 construct: purchased Carna Biosciences, Inc. 04-108
Procedure: The preparation of a buffer solution was performed by mixing a N-2-hydroxyethylpiperazine-N′-2-ethanesulfonic acid buffer solution (HEPES buffer solution) (pH 7.4), dithiothreitol (DTT), Triton X-100, and magnesium chloride (MgCl2). A 500 μM [γ-^33P]ATP solution was used by diluting a 10 mM ATP solution and a commercially available [γ-^33P]ATP solution (manufactured by PerkinElmer, Inc., Code No. NEG-302H) with the buffer solution. A CDK7 solution was used by diluting commercially available CDK7 (manufactured by Carna Biosciences, Inc., Catalog No. 04-108) with the buffer solution. A substrate solution was used by diluting myelin basic protein (MBP) with the buffer solution. As for the preparation of a reaction solution, the buffer solution, the CDK7 solution, and the substrate solution were mixed at 4° C. to obtain a reaction solution.
CDK7 enzyme reaction was performed by adding 5 μL of a test compound solution prepared with 10% DMSO/90% injectable distilled water, and 40 μL of the reaction solution to a 1.5 mL microtube at 4° C. and preincubating the microtube at 25° C. for 60 minutes in a water bath incubator. Subsequently, reaction was performed at 30° C. for 20 minutes by adding 5 μL of the 500 μM [γ-^33P]ATP solution. After the reaction, a 10% aqueous trichloroacetic acid (TCA) solution was added to each microtube while cooled to 4° C., and mixed in a vortex mixer to terminate the reaction. The resultant was left standing at 4° C. for 10 minutes and then centrifuged, and the supernatant was discarded. Next, a 2% aqueous trichloroacetic acid (TCA) solution was added thereto, mixed in a vortex mixer, and then centrifuged, and the supernatant was discarded. This washing operation was performed twice. After the washing, precipitates were dissolved in a 1 N aqueous sodium hydroxide (NaOH) solution, and the energy quantity (radioactivity) of the reaction product was measured with a liquid scintillation counter.
The calculation of the inhibitory activity of the test compound against CDK7 was performed as a test compound concentration inhibiting 50% of the amount of ^33P bound to MBP (IC50 value) by using EXSUS (version 8.1.0, manufactured by CAC Exicare Corp.).
The calculation of a Ki value was performed according to the following calculation expression wherein S represents the concentration of ATP contained in the reaction solution, and Km represents a Michaelis-Menten constant: Ki=IC50/(1+S/Km)

[1] = tested on: human large intestine cancer cell line (HCT-116); assay: Human large intestine cancer (HCT-116) cell growth inhibition test; format: cell-based; conditions: HCT-116, 72 h, culture for 3 days, sulforhodamine B, read-out: GI50 value, HCT-116 cell growth inhibition
Procedure: The measurement of a human large intestine cancer cell growth inhibitory effect was carried out by modifying the method of Simak et al. (Cancer Research, 69, 6208 (2009)).
A human large intestine cancer cell line (HCT-116, obtained from DS Pharma Biomedical Co., Ltd.) was cultured in a McCoy's 5A medium (manufactured by Thermo Fisher Scientific, Inc.) containing 10% fetal bovine serum (FBS) (manufactured by Thermo Fisher Scientific, Inc.) and 1% penicillin/streptomycin/amphotericin B (manufactured by Thermo Fisher Scientific, Inc.) and inoculated at 0.5 to 2.0×10^3 cells/well in a 96-well plate. After overnight culture in a carbon dioxide incubator, the medium was replaced with a fresh medium on the next day, and a test compound dissolved in DMSO (final DMSO concentration: 0.1%) was added thereto and left standing in a carbon dioxide incubator. After culture for 3 days, the absorbance thereof was measured by using In Vitro Toxicology Assay Kit Sulforhodamine B based (manufactured by Sigma-Aldrich Co. LLC.).
The rate of inhibition of cell growth at each concentration was calculated from the test compound concentration and the absorbance of sulforhodamine B, and the concentration of the test compound necessary for inhibiting 50% of cell growth (GI50 value) was calculated by using EXSUS (version 8.1.0, manufactured by CAC Exicare Corp.).

T1 sequence (P50613 whole entry): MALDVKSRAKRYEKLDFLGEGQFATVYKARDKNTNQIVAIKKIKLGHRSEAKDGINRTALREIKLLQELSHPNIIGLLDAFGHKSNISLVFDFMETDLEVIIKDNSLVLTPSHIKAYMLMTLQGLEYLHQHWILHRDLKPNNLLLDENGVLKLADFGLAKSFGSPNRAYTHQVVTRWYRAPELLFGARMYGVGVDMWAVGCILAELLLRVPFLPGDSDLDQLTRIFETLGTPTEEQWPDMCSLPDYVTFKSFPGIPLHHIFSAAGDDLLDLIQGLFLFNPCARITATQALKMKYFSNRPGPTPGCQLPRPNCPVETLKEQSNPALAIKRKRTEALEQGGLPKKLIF
T1 sequence (P51946 whole entry partner): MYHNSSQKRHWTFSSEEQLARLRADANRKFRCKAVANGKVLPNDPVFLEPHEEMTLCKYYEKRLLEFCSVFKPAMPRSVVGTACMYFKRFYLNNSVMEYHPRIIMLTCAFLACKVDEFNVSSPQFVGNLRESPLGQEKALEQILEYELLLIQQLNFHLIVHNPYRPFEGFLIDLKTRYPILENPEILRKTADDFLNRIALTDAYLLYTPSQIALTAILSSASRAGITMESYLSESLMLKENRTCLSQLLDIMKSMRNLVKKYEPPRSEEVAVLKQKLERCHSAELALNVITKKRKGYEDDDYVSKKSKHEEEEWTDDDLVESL
T1 sequence (P51948 whole entry partner): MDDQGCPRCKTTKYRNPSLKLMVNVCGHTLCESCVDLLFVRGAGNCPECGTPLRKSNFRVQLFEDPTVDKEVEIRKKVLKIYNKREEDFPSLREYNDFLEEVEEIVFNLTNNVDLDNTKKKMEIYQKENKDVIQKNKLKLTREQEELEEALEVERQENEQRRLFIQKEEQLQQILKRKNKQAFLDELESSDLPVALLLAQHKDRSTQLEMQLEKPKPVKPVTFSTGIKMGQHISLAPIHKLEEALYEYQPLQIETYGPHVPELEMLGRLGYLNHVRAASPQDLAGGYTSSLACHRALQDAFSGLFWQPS

Compound | Ki (CDK7) [nM] | GI50 [1] [nM]
CN(C(=O)N1Cc2c(NC(=O)C3([Si](C)(C)C)CCC3)n[nH]c2C1(C)C)c1ccccc1 [I-965, N,6,6-Trimethyl-N-phenyl-3-[1-(trimethylsilyl)cyclobutanecarboxamido]-4,6-dihydropyrrolo[3,4-c]pyrazole-5(1H)-carboxamide] | ≤ 50 | –
Cc1cccc(Br)c1NC(=O)N1Cc2c(NC(=O)C(C)(C)[Si](C)(C)C)n[nH]c2C1(C)C [II-290, N-(2-Bromo-6-methylphenyl)-6,6-dimethyl-3-[2-methyl-2-(trimethylsilyl)propanamido]-4,6-dihydropyrrolo[3,4-c]pyrazole-5(1H)-carboxamide] | ≤ 50 | –
Cc1cccc(Br)c1NC(=O)N1Cc2c(NC(=O)C3([Si](C)(C)C)CC3)n[nH]c2C1(C)C [III-299, N-(2-Bromo-6-methylphenyl)-6,6-dimethyl-3-[1-(trimethylsilyl)cyclopropanecarboxamido]-4,6-dihydropyrrolo[3,4-c]pyrazole-5(1H)-carboxamide] | ≤ 50 | ≤ 100
CC[Si](C)(C)C1(C(=O)Nc2n[nH]c3c2CN(C(=O)Nc2ccccc2F)C3(C)C)CCC1 [IV-4, 3-[1-(Ethyldimethylsilyl)cyclobutanecarboxamido]-N-(2-fluorophenyl)-6,6-dimethyl-4,6-dihydropyrrolo[3,4-c]pyrazole-5(1H)-carboxamide] | – | ≤ 100
CC1(C)c2[nH]nc(NC(=O)C3([Si](C)(C)C)CCC3)c2CN1C(=O)Nc1cccc(F)c1 [IV-5, N-(3-Fluorophenyl)-6,6-dimethyl-3-[1-(trimethylsilyl)cyclobutanecarboxamido]-4,6-dihydropyrrolo[3,4-c]pyrazole-5(1H)-carboxamide] | – | ≤ 100
CC1(C)c2[nH]nc(NC(=O)C3([Si](C)(C)C)CCC3)c2CN1C(=O)Nc1ccc(F)cc1 [IV-7, N-(4-Fluorophenyl)-6,6-dimethyl-3-[1-(trimethylsilyl)cyclobutanecarboxamido]-4,6-dihydropyrrolo[3,4-c]pyrazole-5(1H)-carboxamide] | ≤ 50 | ≤ 100
CC1(C)c2[nH]nc(NC(=O)C3([Si](C)(C)C)CCC3)c2CN1C(=O)Nc1cccc(Cl)c1 [IV-11, N-(3-Chlorophenyl)-6,6-dimethyl-3-[1-(trimethylsilyl)cyclobutanecarboxamido]-4,6-dihydropyrrolo[3,4-c]pyrazole-5(1H)-carboxamide] | – | ≤ 100
Cc1cccc(NC(=O)N2Cc3c(NC(=O)C4([Si](C)(C)C)CCC4)n[nH]c3C2(C)C)c1 [IV-23, 6,6-Dimethyl-N-(m-tolyl)-3-[1-(trimethylsilyl)cyclobutanecarboxamido]-4,6-dihydropyrrolo[3,4-c]pyrazole-5(1H)-carboxamide] | ≤ 50 | ≤ 100
Cc1ccc(NC(=O)N2Cc3c(NC(=O)C4([Si](C)(C)C)CCC4)n[nH]c3C2(C)C)cc1 [IV-25, 6,6-Dimethyl-N-(p-tolyl)-3-[1-(trimethylsilyl)cyclobutanecarboxamido]-4,6-dihydropyrrolo[3,4-c]pyrazole-5(1H)-carboxamide] | – | ≤ 100
CC1(C)c2[nH]nc(NC(=O)C3([Si](C)(C)C)CCC3)c2CN1C(=O)Nc1ccccc1C(F)(F)F [IV-51, 6,6-Dimethyl-N-[2-(trifluoromethyl)phenyl]-3-[1-(trimethylsilyl)cyclobutanecarboxamido]-4,6-dihydropyrrolo[3,4-c]pyrazole-5 (1H)-carboxamide] | ≤ 50 | ≤ 100
CC1(C)c2[nH]nc(NC(=O)C3([Si](C)(C)C)CCC3)c2CN1C(=O)Nc1ccccc1C#N [IV-63, N-(2-Cyanophenyl)-6,6-dimethyl-3-[1-(trimethylsilyl)cyclobutanecarboxamido]-4,6-dihydropyrrolo[3,4-c]pyrazole-5(1H)-carboxamide] | ≤ 50 | ≤ 100
COc1ccc(NC(=O)N2Cc3c(NC(=O)C4([Si](C)(C)C)CCC4)n[nH]c3C2(C)C)cc1 [IV-79, N-(4-Methoxyphenyl)-6,6-dimethyl-3-[1-(trimethylsilyl)cyclobutanecarboxamido]-4,6-dihydropyrrolo[3,4-c]pyrazole-5(1H)-carboxamide] | ≤ 50 | ≤ 100
CCOc1ccccc1NC(=O)N1Cc2c(NC(=O)C3([Si](C)(C)C)CCC3)n[nH]c2C1(C)C [IV-81, N-(2-Ethoxyphenyl)-6,6-dimethyl-3-[1-(trimethylsilyl)cyclobutanecarboxamido]-4,6-dihydropyrrolo[3,4-c]pyrazole-5(1H)-carboxamide] | – | ≤ 100
CC1(C)c2[nH]nc(NC(=O)C3([Si](C)(C)C)CCC3)c2CN1C(=O)Nc1ccccc1OC(F)(F)F [IV-93, 6,6-Dimethyl-N-[2-(trifluoromethoxy)phenyl]-3-[1-(trimethylsilyl)cyclobutanecarboxamido]-4,6-dihydropyrrolo[3,4-c]pyrazole-5(1H)-carboxamide] | ≤ 50 | ≤ 100
CC1(C)c2[nH]nc(NC(=O)C3([Si](C)(C)C)CCC3)c2CN1C(=O)Nc1cccc(F)c1F [IV-99, N-(2,3-Difluorophenyl)-6,6-dimethyl-3-[1-(trimethylsilyl)cyclobutanecarboxamido]-4,6-dihydropyrrolo[3,4-c]pyrazole-5(1H)-carboxamide] | ≤ 50 | ≤ 100
CC1(C)c2[nH]nc(NC(=O)C3([Si](C)(C)C)CCC3)c2CN1C(=O)Nc1ccc(F)cc1F [IV-101, N-(2,4-Difluorophenyl)-6,6-dimethyl-3-[1-(trimethylsilyl)cyclobutanecarboxamido]-4,6-dihydropyrrolo[3,4-c]pyrazole-5(1H)-carboxamide] | ≤ 50 | ≤ 100
Cc1cccc(NC(=O)N2Cc3c(NC(=O)C4([Si](C)(C)C)CCC4)n[nH]c3C2(C)C)c1F [IV-123, N-(2-Fluoro-3-methylphenyl)-6,6-dimethyl-3-[1-(trimethylsilyl)cyclobutanecarboxamido]-4,6-dihydropyrrolo[3,4-c]pyrazole-5 (1H)-carboxamide] | – | ≤ 100
CC1(C)c2[nH]nc(NC(=O)C3([Si](C)(C)C)CCC3)c2CN1C(=O)Nc1cc(F)ccc1Cl [IV-191, N-(2-Chloro-5-fluorophenyl)-6,6-dimethyl-3-[1-(trimethylsilyl)cyclobutanecarboxamido]-4,6-dihydropyrrolo[3,4-c]pyrazole-5 (1H)-carboxamide] | – | ≤ 100
CC1(C)c2[nH]nc(NC(=O)C3([Si](C)(C)C)CCC3)c2CN1C(=O)Nc1cc(Cl)ccc1Cl [IV-197, N-(2,5-Dichlorophenyl)-6,6-dimethyl-3-[1-(trimethylsilyl)cyclobutanecarboxamido]-4,6-dihydropyrrolo[3,4-c]pyrazole-5(1H)-carboxamide] | – | ≤ 100
Cc1ccc(Cl)c(NC(=O)N2Cc3c(NC(=O)C4([Si](C)(C)C)CCC4)n[nH]c3C2(C)C)c1 [IV-213, N-(2-Chloro-5-methylphenyl)-6,6-dimethyl-3-[1-(trimethylsilyl)cyclobutanecarboxamido]-4,6-dihydropyrrolo[3,4-c]pyrazole-5 (1H)-carboxamide] | – | ≤ 100
COc1ccc(Cl)c(NC(=O)N2Cc3c(NC(=O)C4([Si](C)(C)C)CCC4)n[nH]c3C2(C)C)c1 [IV-245, N-(2-Chloro-5-methoxyphenyl)-6,6-dimethyl-3-[1-(trimethylsilyl)cyclobutanecarboxamido]-4,6-dihydropyrrolo[3,4-c]pyrazole-5(1H)-carboxamide] | – | ≤ 100
CC1(C)c2[nH]nc(NC(=O)C3([Si](C)(C)C)CCC3)c2CN1C(=O)Nc1cccnc1 [IV-1019, 6,6-Dimethyl-N-(pyridin-3-yl)-3-[1-(trimethylsilyl)cyclobutanecarboxamido]-4,6-dihydropyrrolo[3,4-c]pyrazole-5(1H)-carboxamide] | ≤ 50 | –

— patent US10894798B2, “Substituted dihydropyrrolopyrazole derivative” (UBE INDUSTRIES, LTD., priority 2015, dated 2021)
